Source: patent US20230097226A1, “GENERATING AORTA-GONAD-MESONEPHROS-LIKE HEMATOPOIETIC CELLS FROM HUMAN PLURIPOTENT STEM CELLS UNDER A DEFINED CONDITION” (Purdue Research Foundation, priority 2020, published 2023)

How the values were obtained:
Format in all cases: cell-based, human
[1] = tested on: hPSC-derived hemogenic endothelium; assay: Hematopoietic specification of hPSC-derived hemogenic endothelium, flow cytometry for CD45; settings: for generation of CD45+ hematopoietic cells: screening of chemicals and cytokines, feeder-free conditions, 19-9-11 iPSC-derived HE; for yield of resulting stem cells: day 12, differentiation factor applied at hematopoietic specification stage; for yield and purity of CD45+ hematopoietic cells on retrieval from the differentiation medium: day 15 cultures, SCF and FLT3L withdrawn; for efficiency of generating AGM-like hematopoietic stem cells when used in place of SB431542: Day 4-6 of differentiation
Method: While OP9-DLL4 stromal cells have been used to efficiently induce hematopoietic and immune cells from our small-molecule induced HE [32], the undefined nature of feeder cells may lead to inaccurate investigation of signaling pathways during hematopoiesis. Thus, to develop a chemically-defined hematopoietic specification platform, screening of known chemicals and cytokines was performed on our hPSC-derived AGM-like HE under feeder-free conditions (FIG. 2A). […] Wnt-059 and SB-induced hematopoiesis were also applicable to H9 and 6-9-9 hPSCs (FIG. 2E).
19-9-11, 19-9-7, 6-9-9, H1, H9 and H13 were obtained from WiCell and maintained on Matrigel- or iMatrix 511-coated plates in mTeSR plus or mTeSR1 medium according to a previously published method. RUES2 were kindly provided by Dr. Ali H. Brivanlou at the Rockefeller University. The Kolf2 and CT2 data were acquired in Dr. Yang Yang's lab and Dr. Ourania Andrisani's lab at Purdue. H9 7TGFβ Wnt reporter and 19-9-11 ischcat-1 as well as ischcat-2 lines were kindly provided by Dr. Sean Palecek at University of Wisconsin-Madison. To make hematopoietic cells, hPSCs were dissociated with 1 mM EDTA and seeded onto iMatrix 511 or Matrigel-coated 6-, 12- or 24-well plate at a cell density between 10,000 and 80,000 cell/cm^2 in mTeSR plus or mTeSR1 medium with 5 μM Y27632 for 24 hours (day-1). At day 0, cells were treated with 6 μM CHIR99021 (CHIR) in DMEM medium supplemented with 100 ug/ml ascorbic acid (DMEM/Vc), followed by a medium change with LasR basal medium at day 1, day 2 and day 3. For female hPSC lines, 50 ng/mL VEGF was added to the medium from day 2 to day 4. At day 4, medium was replaced by Stemline II medium (Sigma) supplemented 10 μM SB431542. After 2 days, SB431542-containing medium was aspirated and cells were maintained in Stemline II medium with or without 50 ng/mL SCF and FLT3L. At day 9 and every 2 to 3 days afterwards, aspirate half medium and add fresh Stemline II medium with or without SCF/FLT3L until analysis. Other media used to induce hematopoietic cells were illustrated in FIG. 8B.
Floating hematopoietic cells were gently pipetted and filtered through a 70 or 100 μm strainer sitting on a 50 ml tube. The cells were then pelleted by centrifugation and washed once in PBS−/−solution with 1% bovine serum albumin (BSA). The cells were stained with appropriate conjugated antibodies (Table 1) for 25 mins at room temperature in dark, and analyzed in Accuri C6 plus flow cytometer (Beckton Dickinson) after washing once with BSA-containing PBS−/−solution. FlowJo software was used to process collected flow data.

Wnt signaling = assay: RT-PCR of day 6 HE samples (WNT3A, AXIN2) and 7TGP Wnt reporter line; settings: for transcriptional activity of endogenous Wnt signaling: H9 7TGP Wnt reporter line, day 6, eGFP flow cytometry; for expression of WNT3A and AXIN2: RT-PCR, day 6 HE samples
Method: Cells cultured on 24-well plate were collected and lysed in 500 μL TRIzol™ reagent (Invitrogen). Total RNA were then prepared with the Direct-zol RNA miniprep kit (Zymo) with in-column DNase treatment following the manufacture's instruction. cDNA was reverse transcribed from 1 μg RNA with ProtoScript First Strand cDNA Synthesis Kit (NEB) and used for RT-PCR with GoTaq Green Master Mix (Promega).

hPSCs = assay: Hemogenic endothelium differentiation of hPSCs, flow cytometry and immunostaining for CD34/SOX17; settings: early CHIR treatment; day 5 cultures
From the text: Producing hemogenic endothelium (HE) from hPSCs, marked by the expression of typical endothelial marker VE-cadherin, CD31, and CD34, is a vital step towards hematopoietic cell generation. We've previously developed a robust protocol to generate homogenous CD34+CD31+HE from hPSCs via small-molecule activation of Wnt signaling (FIG. 1A-B). Since simultaneous modulation of Wnt and Activin signaling yields aorta-like SOX17+ vessels in AGM that give rise to hematopoietic cells, we speculated that our small molecule-induced CD34+CD31+ cells are also SOX17+, which was confirmed by flow cytometry and immunostaining analysis of SOX17 expression (FIG. 1C-D). […] Importantly, the resulting CD34+SOX17+AGM-like HE didn't express CD235a, markers of primitive hematopoiesis.
19-9-11, 19-9-7, 6-9-9, H1, H9 and H13 were obtained from WiCell and maintained on Matrigel- or iMatrix 511-coated plates in mTeSR plus or mTeSR1 medium according to a previously published method. RUES2 were kindly provided by Dr. Ali H. Brivanlou at the Rockefeller University. […]
Floating hematopoietic cells were gently pipetted and filtered through a 70 or 100 μm strainer sitting on a 50 ml tube. […] The cells were stained with appropriate conjugated antibodies (Table 1) for 25 mins at room temperature in dark, and analyzed in Accuri C6 plus flow cytometer (Beckton Dickinson) after washing once with BSA-containing PBS−/−solution. […]

Molecule: Cc1cc(-c2ccc(CC(=O)Nc3ccc(-c4cccnc4)cc3)cc2)ccn1 [Wnt-059]
- generation of CD45+ hematopoietic cells [1]: significantly induced
- transcriptional activity of endogenous Wnt signaling (Wnt signaling): low transcriptional activity
- expression of WNT3A and AXIN2 (Wnt signaling): low expression

Molecule: heparin
- promotion of hematopoietic cell production [1]: work well
- yield of resulting stem cells [1]: 20.6%

Molecule: thrombopoietin [TPO]
- promotion of hematopoietic cell production [1]: work well
- yield of resulting stem cells [1]: 30.4%

Molecule: stem cell factor [SCF]
- yield and purity of CD45+ hematopoietic cells on retrieval from the differentiation medium [1]: reduced both the yield and purity

Molecule: NC(=O)c1ccc(-c2nc(-c3ccc4c(c3)OCO4)c(-c3ccccn3)[nH]2)cc1 [SB431542]
- CD45+ hematopoietic cells ([1]; SB treatment day 4 to 6, read on day 12, 19-9-11 iPSCs): more than 40%
- yield of resulting stem cells [1]: 40.9%
- generation of CD45+ hematopoietic cells [1]: significantly enhanced
- transcriptional activity of endogenous Wnt signaling (Wnt signaling): low transcriptional activity
- expression of WNT3A and AXIN2 (Wnt signaling): low expression

Molecule: Cc1c[nH]c(-c2cnc(NCCNc3ccc(C#N)cn3)nc2-c2ccc(Cl)cc2Cl)n1 [CHIR99021]
- effect on hematopoiesis induced by SB ([1]; activation of Wnt signaling together with SB): blocked
- CD34+SOX17+ population obtained (hPSCs): homogenous CD34+SOX17+ population

B1: colony-stimulating factor 3 (protein, UniProt P09919 31-207, looked up)
Granulocyte …: TPLGPASSLPQSFLLKCLEQVRKIQGDGAALQEKLVSECATYKLCHPEELVLLGHSLGIPWAPLSSCPSQALQLAGCLSQLHSGLFLYQGLLQALEGISPELGPTLDTLQLDVADFATTIWQQMEELGMAPALQPTQGAMPAFASAFQRRAGGVLVASHLQSFLEVSYRVLRHLAQP
- efficiency of generating AGM-like hematopoietic stem cells when used in place of SB431542 [1]: lower efficiency

B2: IL-16: cytokine that could be used in place of SB431542, lower efficiency (protein, UniProt Q14005 1212-1332, looked up)
Interleukin-16: SAASASAASDVSVESTAEATVCTVTLEKMSAGLGFSLEGGKGSLHGDKPLTINRIFKGAASEQSETVQPGDEILQLGGTAMQGLTRFEAWNIIKALPDGPVTIVIRRKSLQSKETTAAGDS
- efficiency of generating AGM-like hematopoietic stem cells when used in place of SB431542 [1]: lower efficiency

B3: FMS-like tyrosine kinase 3 ligand (protein, UniProt P49771 27-235, looked up)
Fms-related tyrosine kinase 3 …: TQDCSFQHSPISSDFAVKIRELSDYLLQDYPVTVASNLQDEELCGGLWRLVLAQRWMERLKTVAGSKMQGLLERVNTEIHFVTKCAFQPPPSCLRFVQTNISRLLQETSEQLVALKPWITRQNFSRCLELQCQPDSSTLPPPWSPRPLEATAPTAPQPPLLLLLLLPVGLLLLAAAWCLHWQRTRRRTPRPGEQVPPVPSPQDLLLVEH
notes: Recombinant Human Flt3-Ligand, Peprotech #300-19
- yield and purity of CD45+ hematopoietic cells on retrieval from the differentiation medium [1]: reduced both the yield and purity
